# How the values were obtained:
# [1] = system: increase in H+ concentration of gastric aspirate induced by pentagastrin; assay: Pharmacodynamic effect in healthy subjects (pentagastrin infusion); assay type: in vivo, human
# Protocol: Pentagastrin induces gastric acid secretion, and thereby increases H^+ concentration.
# In further clinical studies, in healthy volunteers, single oral doses of 5, 15, 50 and 100 mg of (TR2) or 5, 15, 25 and 50 mg (TR2-A) were administered in conjunction with pentagastrin infusion (i.v. dose 0.6 μg/kg/h for 2 h).
# YF476 with pentagastrin infusion.
# CCK2 (human) = biological target: T1, CCK2 (human) (Homo sapiens, UniProt P32239); assay: CCK2 receptor functional assay (antagonist effect, cAMP, HTRF); assay type: cell-based
# T1 construct: expressed in transfected cells; host or cells: CHO cells
# T1 sequence (P32239 1-447): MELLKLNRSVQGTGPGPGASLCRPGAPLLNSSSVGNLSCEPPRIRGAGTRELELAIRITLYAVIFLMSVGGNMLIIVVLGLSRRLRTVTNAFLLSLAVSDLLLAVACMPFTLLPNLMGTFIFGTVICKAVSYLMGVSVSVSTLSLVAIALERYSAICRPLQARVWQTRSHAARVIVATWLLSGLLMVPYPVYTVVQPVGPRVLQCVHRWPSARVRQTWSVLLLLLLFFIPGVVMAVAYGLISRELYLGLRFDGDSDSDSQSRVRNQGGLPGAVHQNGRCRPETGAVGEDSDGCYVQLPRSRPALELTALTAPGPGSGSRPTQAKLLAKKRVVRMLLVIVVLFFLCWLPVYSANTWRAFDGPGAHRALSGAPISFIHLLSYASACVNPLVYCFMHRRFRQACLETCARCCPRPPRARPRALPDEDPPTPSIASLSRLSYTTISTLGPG
# Text: (§1) (TR2) and (TR3) were compared with YF476 and YM022 in CCK1 and CCK2 receptor functional assays with the following assay criteria.
# (§2) Furthermore, the selectivity of (TR2) for the CCK2 receptor over the CCK1 receptor was 30% higher than the selectivity of YF476. The potency of the antagonists is expressed as IC50, the concentration of antagonist that causes a half-maximum inhibition of the control agonist response. The affinity of the antagonist for the receptor is expressed as KB, the concentration of antagonist, which would occupy 50% of the receptors at equilibrium.
# [2] = Pharmacokinetics in healthy subjects; conditions: human, in vivo, po
# Protocol: In an initial study, healthy volunteers took a single oral dose of 100 mg (TR2) as an active pharmaceutical ingredient (API) in a capsule. Plasma concentrations were measured.
# In further clinical studies, healthy volunteers (n=8) took single oral doses of 5, 15, 50 and 100 mg (TR2) as an active pharmaceutical ingredient (API) in a capsule. Plasma concentrations were measured.
# Healthy volunteers (n=8) took single oral doses of 5, 15, 25 and 50 mg (TR2-A) as API in a capsule (TR2-A (crystalline) in hard gelatin capsules with no excipient, no processing of the API). Plasma concentrations of (TR2) and (TR2-A) were measured. The area under the curve of plasma concentrations of (TR2) after a single oral dose of 50 mg of (TR2-A) API (AUC0-24 h=212.5) was about the same as that observed for a similar formulation of a single oral dose of (TR2) 100 mg (AUC0-24 h=241.5). […] Moreover, the plasma concentrations of (TR2-A) were low (AUC0-24 h<10), showing that (TR2-A) is acting as a prodrug for (TR2).
# [3] = Morphology studies (crystallisation attempts, XRPD); assay type: physicochemical
# Text: This is indicative of an advantage over YF476 in terms of the formulation of a suitable pharmaceutical composition. YF476 is crystalline, which contributes to poor solubility and bioavailability. Amorphous YF476 can be used to increase bioavailability, but requires stabilization, which can be achieved as a solid dispersion on hydroxypropyl methyl cellulose by spray-drying.
# AGSGR cells = assay: Sulphorhodamine-B (SRB) proliferation assay; assay type: cell-based, human; conditions: G17 10 nM
# Protocol: The potency of (TR2) and (TR3) was tested in a sulphorhodamine-B (SRB) proliferation assay in a human gastric adenocarcinoma cell line stably transfected with the human gastrin/CCK2 receptor gene (AGSGR). SRB is a fluorescent dye that binds to proteins, so cells with a high rate of protein synthesis (proliferative cells) will show high levels of fluorescence in the SRB assay. The gastrin fragment G17 has an anti-proliferative effect on AGSGR cells. So, when treated with G17, the cells show lower levels of fluorescence in the SRB assay. (TR2) and (TR3) were compared with the positive controls YF476 and YM022. […] None of the compounds tested affected AGSGR cell proliferation in the absence of G17.
# CCK1 (human) = biological target: T2, CCK1 (human) (Homo sapiens, UniProt P32238); assay: CCK1 receptor functional assay (antagonist effect, cAMP, HTRF); assay type: cell-based
# T2 construct: expressed in transfected cells; host or cells: CHO cells
# T2 sequence (P32238 1-428): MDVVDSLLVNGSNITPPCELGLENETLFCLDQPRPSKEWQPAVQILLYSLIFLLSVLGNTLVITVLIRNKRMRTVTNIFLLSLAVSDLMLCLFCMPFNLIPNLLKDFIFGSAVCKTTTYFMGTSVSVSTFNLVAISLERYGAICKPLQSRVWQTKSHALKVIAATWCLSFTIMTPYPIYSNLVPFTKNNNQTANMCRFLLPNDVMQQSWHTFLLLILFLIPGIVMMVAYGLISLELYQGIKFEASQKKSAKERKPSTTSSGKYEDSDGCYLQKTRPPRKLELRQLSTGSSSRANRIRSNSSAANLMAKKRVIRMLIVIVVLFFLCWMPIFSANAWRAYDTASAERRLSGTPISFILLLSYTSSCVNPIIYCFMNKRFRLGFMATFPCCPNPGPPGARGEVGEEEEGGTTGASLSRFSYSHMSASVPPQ
# Text: as §1
# as §2, with “The” for “Furthermore, the selectivity of (TR2) for the CCK2 receptor over the CCK1 receptor was 30% higher than the selectivity of YF476. The”
# panel of 80 receptors = assay: Receptor binding screen, radiolabelled ligands; conditions: scintillation counting; other than CCK2 and CCK1
# Protocol: The potential of (TR2) and (TR3) to bind to other cellular and nuclear receptors was tested in a panel of 80 receptors. The assay used radiolabelled receptor ligands (agonist or antagonist, depending on the receptor), and the ability of the test compounds to inhibit ligand binding was measured by scintillation counting.
# [4] = Solubility study in Britton-Robinson's buffer (HPLC-UV); assay type: physicochemical
# Protocol: The test compound (2.5 mg of solid; n=1) was weighed in a clear glass vial and Britton-Robinson's buffer (0.5 mL) was added (pH 2.01, pH 3.06, pH 4.06, pH 5.08, pH 5.99, pH 6.98, and pH 8.16). The solution was agitated at ambient temperature overnight using a vial roller system, and then filtered (0.45 µm pore size; without pre-saturation). Two aliquots (50 μL) were sampled from the filtrate and diluted with one volume of 0.1 N hydrochloric acid and methanol (1:1 v/v) before analysis by HPLC-UV. A standard was prepared in DMSO at 10 mg/mL (n=1) which was then diluted 10-fold in 0.1 N hydrochloric acid and methanol (1:1 v/v) to give a 1 mg/mL solution. The concentration of test compound in the filtrate was quantified relative to the concentration standard.
# Analysis was done using a gradient HPLC-UV system with a total cycle time of 6 min. The UV detection between 220 nm and 300 nm was done using a photodiode array detector. Total response was monitored.
# The values given in the table above are for crystalline YF476 and (TR2-A) and amorphous (TR1).
SMILES,CCK2 receptor antagonism (in words) (CCK2 (human)),preferred solid state [3],inhibition of the anti-proliferative effects of G17 (AGSGR cells; compound 100 nM),CCK1 receptor antagonism (in words) (CCK1 (human)),inhibition of ligand binding in panel of 80 receptors (panel of 80 receptors),also measured
"CNc1cccc(NC(=O)N[C@@H]2N=C(c3ccccn3)c3ccccc3N(CC(=O)C(C)(C)COC(C)=O)C2=O)c1 [TR2-A, (R)-1-[1-(4-Acetoxy-3,3-dimethyl-2-oxo-butyl)-2-oxo-5-pyridin-2-yl-2,3-dihydro-1H-benzo[e][1,4]diazepin-3-yl]-3-(3-methylamino-phenyl)-urea]",,,,,,potency as a CCK2 receptor antagonist in healthy subjects (in words) [1]: greater than that of both (TR2) and YF476
"CNc1cccc(NC(=O)N[C@@H]2N=C(c3ccccn3)c3ccccc3N(CC(=O)C(C)(C)CO)C2=O)c1 [TR2, (R)-1-[1-(4-Hydroxy-3,3-dimethyl-2-oxo-butyl)-2-oxo-5-pyridin-2-yl-2,3-dihydro-1H-benzo[e][1,4]diazepin-3-yl]-3-(3-methylamino-phenyl)-urea]",potent CCK2 receptor antagonists,prefer an amorphous state over a crystalline state,completely inhibited,less potent CCK1 receptor antagonists,No significant receptor binding,selectivity for the CCK2 receptor over the CCK1 receptor higher than the selectivity of YF476 (CCK2 (human)): 30%; less potent than YF476 and YM022 in the CCK2 assay (CCK2 (human); IC50 compared): about 5 fold; affinity for the CCK2 receptor lower than that of YF476 (CCK2 (human); KB compared): about 5 fold; affinity for the CCK2 receptor relative to YM022 (CCK2 (human); KB compared): twice; AUC relative to YF476 100 mg [2]: about twice; solid state by XRPD analysis [3]: amorphous state
CNc1cccc(NC(=O)N[C@H]2N=C(c3ccccn3)c3ccccc3N(CC(=O)C(C)(C)CO)C2=O)c1 [TR3],potent CCK2 receptor antagonists,prefer an amorphous state over a crystalline state,,less potent CCK1 receptor antagonists,No significant receptor binding,inhibition of the anti-proliferative effects of G17 (AGSGR cells; compound 500 nM): had the same effect
CNc1cccc(NC(=O)NC2N=C(c3ccccn3)c3ccccc3N(CC(=O)C(C)(C)CO)C2=O)c1 (racemic) [TR1],,prefer an amorphous state over a crystalline state,,,,aqueous solubility compared (in words) [4]: more soluble in aqueous solution than YF476
"CNc1cccc(NC(=O)N[C@@H]2N=C(c3ccccn3)c3ccccc3N(CC(=O)C(C)(C)C)C2=O)c1 [YF476, reference compound]",,,completely inhibited,,,
"Cc1cccc(NC(=O)N[C@@H]2N=C(c3ccccc3)c3ccccc3N(CC(=O)c3ccccc3C)C2=O)c1 [YM022, reference compound]",,,completely inhibited,,,

# Source: patent publication US11447454B2, “Synthesis of benzodiazepine derivatives” (Trio Medicines Limited, priority 2015, dated 2022)
